Measurements from the METLIN SMRT retention time set (Domingo-Almenara et al. 2019).

Assay: gradient 5% acetonitrile 3 min, to 50% in 2 min, to 85% in 15 min, held 3 min, 100 µL/min
Conditions: column: Zorbax Extend-C18 2.1 x 50 mm; eluents: water / acetonitrile, 0.1% formic acid
Method in brief: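 Values are retention times taken from adduct peaks that software picked and an analyst inspected. The pure standards were run as mixtures of ~100 molecules on HPLC linked to a quadrupole time-of-flight mass spectrometer, in positive and negative ionization mode. A Zorbax Extend-C18 column (2.1 × 50 mm, 1.8 μm) was used at 100 μL/min with water and acetonitrile, each including 0.1% formic acid.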

| SMILES | RP-LC retention time |
| --- | --- |
| O=C(c1nc(C2CC2)nc2c1OCCO2)N1CCCC1c1cccnc1 (stereo not drawn) | 642 s |
| Cc1ccc(Cn2nc3n(c2=O)CCCC3)cc1 | 702 s |
| CCCNC(=O)c1cn(-c2ccc(NC(=O)C3CC3)cn2)cn1 | 655 s |
| CC(C)(C)C(=O)NC1CCN(C(=O)c2ccccc2)C1 (stereo not drawn) | 676 s |
| N#Cc1ccc(-c2nc(-c3nn(CCN4CCOCC4)c4ccccc34)no2)cc1 | 692 s |
| Cc1oc2ccn(C)c(=O)c2c1C(=O)NCc1cccc(Br)c1 | 947 s |
| CCCCN(CC)c1nc(-c2ccccc2F)nc2ccccc12 | 819 s |
| CC(C)NC(=O)N1CCCC(c2cccc(C(=O)NCc3ccccc3Cl)c2)C1 (stereo not drawn) | 909 s |
| COc1ccccc1OCc1nn2c(-c3ccccn3)nnc2s1 | 740 s |
| Cc1cccc(NC(=O)N2CCC3(CC2)N=C(c2ccccc2)C(=O)N3)c1 | 806 s |
| Cn1c(=O)n(C)c2cc(N3CCCCC3)c(NC(=O)c3ccco3)cc21 | 872 s |
| CCCCN(C)S(=O)(=O)c1c(C)nn(-c2ccc(-c3ccccc3)nn2)c1C | 1160 s |
| O=C(Nc1ccccc1-c1nc2ccccc2[nH]1)C1CC1 | 623 s |
| Cc1cc2[nH]c(C(=O)Nc3cccc(Cl)c3C)c(CN3CCOCC3)c2s1 | 748 s |
| CC(C)C(NC(=O)c1ccc([N+](=O)[O-])cc1)c1nc2ccccc2[nH]1 (stereo not drawn) | 591 s |
| Cc1ccc(CN2CCC(CNC(=O)c3ccc4c(c3)NC(=O)C3CCCCN43)CC2)cc1 (stereo not drawn) | 638 s |
| O=C(NCCc1ccc(Cl)cc1)C1CCN(C(=O)C2Sc3ccccc3NC2=O)CC1 (stereo not drawn) | 774 s |
| CCC1=NS(=O)(=O)c2cccnc2N1c1ccc(CC)cc1 | 931 s |
| COCc1c(C(=O)O)nnn1-c1ccc(C(F)(F)F)cc1 | 775 s |
| COc1ccc(-c2csc(Nc3ccc(S(=O)(=O)Nc4cc(C)on4)cc3)n2)cc1 | 939 s |
| COc1ccc(C(=O)N2CCC(COc3ccc(C(=O)NC4CC4)cc3)CC2)c(C)c1 | 808 s |
| CCc1noc(NC(C)=O)c1-c1ccc(OC)c(S(=O)(=O)Nc2cccc(F)c2)c1 | 794 s |
| Cc1csc(-c2ccc(CNC(=O)Cc3cccc(F)c3)cc2)n1 | 848 s |

| SMILES | RP-LC retention time |
| --- | --- |
| COc1cc(NC(=O)CN2C(=O)COc3ccc(C(=O)N(C)C)cc32)cc(OC)c1 | 689 s |
| CCCCCn1c(=O)c2ccccc2n(Cc2nc(-c3cccc(OC)c3)no2)c1=O | 1130 s |
| O=C(CC1CCCC1)NCCC1CCN(C(=O)Nc2cc(F)ccc2F)CC1 | 847 s |
| CCN1CCCC1CNC(=O)C1c2cc(OC)c(OC)cc2C(=O)N(C)C1c1ccc(OC)cc1 (stereo not drawn) | 611 s |
| CC(C)n1c(=O)oc2cc(-c3noc(CNC(=O)Cc4ccccc4)n3)ccc21 | 842 s |
| O=C(CC1CCCCC1)N1CCN(c2cc(-c3ccc(Cl)cc3)[nH]n2)CC1 | 936 s |
| CCOc1ccc(C(=O)NC2CCN(c3cc(-c4ccccc4)[nH]n3)C2)cc1 (stereo not drawn) | 741 s |
| Cn1c(N2CCCC(C(=O)NCc3cccnc3)C2)cc(=O)n(C)c1=O (stereo not drawn) | 558 s |
| CN(C)C(CNC(=O)Cn1c(=O)oc2ccccc21)c1cn(C)c2ccccc12 (stereo not drawn) | 575 s |
| O=C(Nc1cccn2cnnc12)c1ccc(Cl)s1 | 719 s |
| CCC(C)(C)C(=O)N1CCCC(c2nc(CCNC(=O)C3CC3)cs2)C1 (stereo not drawn) | 767 s |
| COc1cc(-c2noc(Cn3ncn4nc(-c5cc(C)ccc5C)cc4c3=O)n2)cc(OC)c1OC | 1140 s |
| O=C1CCCN1c1ccc(Cn2nc3c(S(=O)(=O)N4CCCC4)cccn3c2=O)cc1 | 673 s |
| COc1ccc(Br)cc1CNC(=O)Cn1cc(-c2nnco2)c2ccccc21 | 855 s |
| C[C@@H]1OC(=O)[C@H]2C[C@H]3CCCC[C@@H]3[C@@H](/C=C/[C@H]3CCC[C@H](C)N3C)[C@@H]12 | 745 s |
| COCCC1CCOC2(CCN(C(=O)C3CCN(C(C)=O)CC3)CC2)C1 (stereo not drawn) | 646 s |
| COc1cc(NC(=O)Cn2c(N3CCOCC3)nc(C)cc2=O)cc(OC)c1 | 655 s |
| CC(C)CN1Cc2ccccc2-n2ccnc2C12CCN(C(=O)c1ccccn1)CC2 | 631 s |
| O=C(Cn1ccn2nc(-c3ccccc3)c(CO)c2c1=O)Nc1ccc2c(c1)OCO2 | 1030 s |
| O=C(Cc1cccc(F)c1)N1CCN(c2cc(-c3cccs3)[nH]n2)CC1 | 798 s |
| CC(C)Cn1cc(S(=O)(=O)Nc2cc(F)ccc2F)c2cccnc21 | 994 s |
| O=C(Nc1nc2c(s1)COCC2)c1cccs1 | 664 s |
| N#Cc1cccc(Cn2nc(-c3nc(-c4ccc(Cl)cc4)no3)ccc2=O)c1 | 1100 s |

| SMILES | RP-LC retention time |
| --- | --- |
| CCN(CC)C(=O)c1ccc2c(c1)N(CC(=O)NC1CCCCC1)C(=O)C1CCCCN21 (stereo not drawn) | 838 s |
| CCC(C)NC(=O)CCC(=O)N1CCc2c(c(C(=O)N3CCCC3)nn2C)C1 (stereo not drawn) | 617 s |
| CCOC(=O)c1cnc2nc(C)ccc2c1Nc1ccc(O)cc1 | 618 s |
| Cc1cc(C(=O)N2CCN(c3cccc(Cl)c3)CC2)n(-c2ccccc2)n1 | 1070 s |
| CCCNC(=O)C1CCN(c2ccc(SCC(=O)NCc3cccs3)nn2)CC1 | 602 s |
| COc1ccccc1NS(=O)(=O)c1cc(-c2cc(C(F)(F)F)on2)sc1C | 1110 s |
| Cc1ccc(NC(=O)C2Oc3ccccc3NC2=O)c(Br)c1 (stereo not drawn) | 852 s |
| Cn1nnnc1C1CCCN(C(=O)C2CCCC2)C1 (stereo not drawn) | 665 s |
| Cc1cc(C2CCCN2C(=O)c2ccc(C)s2)no1 (stereo not drawn) | 770 s |
| CC(C)(C)C(=O)N1CCC(F)(c2nc(-c3ccncc3)no2)CC1 | 802 s |
| COc1ccc(CN2CCC3(CC2)CC(O)CCO3)cc1 (stereo not drawn) | 564 s |
| Cc1ccc2[nH]c(=O)c(CCC(=O)NCCN3CCOCC3)cc2c1 | 577 s |
| CCS(=O)(=O)N1CC(=O)N(c2cc(Cl)ccc2C)C(C)(C(=O)NC2CCCCC2)C1 (stereo not drawn) | 955 s |
| Cc1cccc(S(=O)(=O)N2CC=C(c3cn(C)c4ncccc34)CC2)c1 | 898 s |
| Cc1cc(C(=O)NC2CC2)no1 | 628 s |
| CC(C)C(=O)Nc1cnc(-c2cccc(Cl)c2)nc1 | 975 s |
| COc1ccc(N2C(=O)C3N=NN(Cc4nc(-c5ccc6c(c5)OCO6)no4)C3C2=O)cc1OC (stereo not drawn) | 834 s |
| COc1ccc(-n2cc(C(=O)OCc3ccccn3)c3ccccc3c2=O)cc1 | 854 s |
| O=C(CCn1c(=O)sc2ccccc21)N(Cc1ccccc1)Cc1ccccc1 | 1040 s |
| CC1CCCN(CCCNC(=O)C2CCN(S(=O)(=O)c3ccc4c(c3)sc(=O)n4C)CC2)C1 (stereo not drawn) | 612 s |
| CCNC(=O)c1cc(C)no1 | 596 s |
| Cc1ccc(-n2nc(CO)c(C(=O)NC(C)C)n2)cc1C | 983 s |
